The assay has as its target T1, NaV 1.7 (Homo sapiens, UniProt Q15858).
T1 construct: expressed in transfected cells; host or cells: HEK cells
Kind of assay: E-VIPR optical membrane potential assay with electrical stimulation. The format is cell-based. Conditions: active against one or more sodium channels; assay/subtype not specified in Table 4; read-out: IC50 Binned Activity Data. The procedure, abridged:
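HEK cells expressing human NaV1.7, loaded with CC2-DMPE/DiSBAC6(3) FRET dyes, then exposed to compounds for 20-35 min at room temperature (0.625% DMSO). Electrical stimulation applied for 9 s with 400 Hz scanning. Read-out is the background-subtracted 460/580 nm emission ratio, normalized.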

T1 sequence (Q15858 whole entry): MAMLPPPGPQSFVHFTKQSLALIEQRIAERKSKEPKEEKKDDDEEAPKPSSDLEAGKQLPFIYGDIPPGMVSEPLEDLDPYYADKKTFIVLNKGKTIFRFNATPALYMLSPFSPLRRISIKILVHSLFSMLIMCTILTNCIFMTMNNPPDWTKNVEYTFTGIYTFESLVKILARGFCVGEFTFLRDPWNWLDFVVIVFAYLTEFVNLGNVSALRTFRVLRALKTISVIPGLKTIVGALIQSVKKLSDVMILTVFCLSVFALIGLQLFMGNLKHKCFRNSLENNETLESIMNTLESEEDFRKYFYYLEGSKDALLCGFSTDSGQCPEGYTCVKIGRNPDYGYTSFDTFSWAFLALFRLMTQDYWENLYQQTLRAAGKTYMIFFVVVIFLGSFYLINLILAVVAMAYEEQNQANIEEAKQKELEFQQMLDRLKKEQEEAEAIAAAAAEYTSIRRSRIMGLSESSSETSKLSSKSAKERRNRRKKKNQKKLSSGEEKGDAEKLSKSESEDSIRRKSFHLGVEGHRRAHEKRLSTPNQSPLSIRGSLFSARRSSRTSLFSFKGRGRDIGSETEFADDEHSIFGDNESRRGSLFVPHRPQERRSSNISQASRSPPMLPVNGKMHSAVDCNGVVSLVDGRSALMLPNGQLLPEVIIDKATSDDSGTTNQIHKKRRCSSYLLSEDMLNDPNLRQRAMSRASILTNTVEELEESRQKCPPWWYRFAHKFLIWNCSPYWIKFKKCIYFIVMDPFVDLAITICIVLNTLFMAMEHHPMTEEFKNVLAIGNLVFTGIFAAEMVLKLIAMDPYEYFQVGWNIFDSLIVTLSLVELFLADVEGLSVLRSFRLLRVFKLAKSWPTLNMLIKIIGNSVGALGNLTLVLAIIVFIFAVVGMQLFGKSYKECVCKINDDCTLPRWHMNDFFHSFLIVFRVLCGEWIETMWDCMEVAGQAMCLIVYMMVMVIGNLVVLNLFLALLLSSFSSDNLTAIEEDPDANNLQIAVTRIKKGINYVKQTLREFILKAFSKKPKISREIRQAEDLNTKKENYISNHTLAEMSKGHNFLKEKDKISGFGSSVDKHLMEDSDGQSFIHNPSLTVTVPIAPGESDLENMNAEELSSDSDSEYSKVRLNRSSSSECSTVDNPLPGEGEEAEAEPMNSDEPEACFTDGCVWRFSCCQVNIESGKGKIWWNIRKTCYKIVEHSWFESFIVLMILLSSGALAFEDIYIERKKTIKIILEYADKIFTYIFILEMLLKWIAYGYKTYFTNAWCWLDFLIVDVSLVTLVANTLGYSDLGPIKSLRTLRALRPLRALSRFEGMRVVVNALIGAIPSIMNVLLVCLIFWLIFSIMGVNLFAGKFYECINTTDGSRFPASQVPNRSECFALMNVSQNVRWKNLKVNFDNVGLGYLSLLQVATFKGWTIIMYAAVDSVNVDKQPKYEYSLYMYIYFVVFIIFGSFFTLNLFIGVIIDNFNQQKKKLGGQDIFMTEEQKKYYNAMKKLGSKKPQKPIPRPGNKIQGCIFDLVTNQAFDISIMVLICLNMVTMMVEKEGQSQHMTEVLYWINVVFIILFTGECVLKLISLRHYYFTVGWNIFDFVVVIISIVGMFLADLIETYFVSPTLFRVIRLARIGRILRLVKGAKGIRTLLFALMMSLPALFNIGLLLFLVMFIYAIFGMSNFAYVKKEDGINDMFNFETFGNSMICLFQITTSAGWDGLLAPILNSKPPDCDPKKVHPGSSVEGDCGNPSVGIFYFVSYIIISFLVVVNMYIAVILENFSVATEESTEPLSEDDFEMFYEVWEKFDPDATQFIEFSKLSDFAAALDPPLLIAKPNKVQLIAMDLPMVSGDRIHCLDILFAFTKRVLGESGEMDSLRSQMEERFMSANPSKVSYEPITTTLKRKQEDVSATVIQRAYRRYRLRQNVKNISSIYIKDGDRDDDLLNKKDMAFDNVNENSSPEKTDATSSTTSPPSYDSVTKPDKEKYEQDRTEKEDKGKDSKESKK

In the case of `[2H]C1([2H])OC2CN(C(=O)c3ccc(OCC4(C(F)(F)F)CC4)c(OC)n3)CC[C@]2(c2cc(F)cc(F)c2)O1` (some centres unmarked) [Compound 269], the IC50 (in general, the concentration that gives 50% inhibition) was no more than 2000 nM.
For `Cc1cc(C(=O)N2CC[C@]3(c4ccccn4)OCOC3C2)ccc1OCC(C)(C)F` (some centres unmarked) [Compound 95], the 50% inhibitory concentration (IC50) is no more than 2000 nM.
For `COc1nc(C(=O)N2CC[C@]3(c4ccccn4)OCOC3C2)ccc1OCCOC(F)(F)F` (some centres unmarked) [Compound 107], the IC50 was no more than 2000 nM.
In the case of `Cc1cc(C(=O)N2CC[C@@]3(c4ccccc4)C[C@@H]3C2)ccc1OCC(C)(C)O` [Compound 114] it was no more than 2000 nM.
For the compound `O=C(c1ccc(OCCOC(F)(F)F)c(F)c1)N1CC[C@]2(c3nccs3)OCOC2C1` (some centres unmarked) [Compound 62], the concentration for half-maximal inhibition (IC50) lay within 2000 to 5000 nM.
The figure for `COc1nc(C(=O)N2CC[C@]3(c4nccs4)OCOC3C2)ccc1OCCOC(F)(F)F` (some centres unmarked) [Compound 111] is no more than 2000 nM; for `Cc1cc(C(=O)N2CC[C@]3(c4ccc(F)cc4)OCOC3C2)ccc1OCC(C)(C)O` (some centres unmarked) [Compound 53] it is no more than 2000 nM; for `CC(C)(O)Cc1ccc(C(=O)N2CCC3(c4ccccc4)CC3C2)cc1F` (centres unmarked) [Compound 37] it is no more than 2000 nM.
In the case of `Cc1nc(C(=O)N2CCC3(c4ccccc4)CC3C2)ccc1OCCOC(F)(F)F` (centres unmarked) [Compound 191] it was no more than 2000 nM.
In the case of `COc1cc(C(=O)N2CC[C@]3(c4cccc(F)c4)OCOC3C2)ccc1OCC1CC(F)(F)C1` (some centres unmarked) [Compound 193] it was no more than 2000 nM; in that of `O=C(c1ccc2c(c1)OCC(COC(F)(F)F)O2)N1CC[C@]2(c3ccccc3)OCOC2C1` (some centres unmarked) [Compound 51], 2000 to 5000 nM; in that of `Cc1cc(C(=O)N2CC[C@@]3(c4ccc(F)cc4)OCOC3C2)ccc1OCC(C)(C)O` (some centres unmarked) [Compound 58], no more than 2000 nM.
Turning to `[2H]C1([2H])O[C@@H]2CN(C(=O)c3ccc(OC(C)C(F)(F)F)c(OC)c3)CC[C@]2(c2cccc(F)c2)O1` (some centres unmarked) [Compound 307], the half-inhibitory concentration (IC50) was no more than 2000 nM.
Consider `COc1cc(C(=O)N2CC[C@]3(c4cccc(C#N)c4)OCOC3C2)ccc1OC(C)C(F)(F)F` (some centres unmarked) [Compound 290], for which the IC50 was greater than 5000 nM.
On to `COc1nc(C(=O)N2CC[C@]3(c4cccc(F)c4F)OCOC3C2)ccc1OCC1(C(F)(F)F)CC1` (some centres unmarked) [Compound 271], for which the concentration for half-maximal inhibition (IC50) is no more than 2000 nM.
As for `COc1cc(C(=O)N2CC[C@]3(c4cccc(F)c4)OCOC3C2)ccc1OCCOC(F)(F)F` (some centres unmarked) [Compound 228], the IC50 is no more than 2000 nM.
With `COc1cc(C(=O)N2CC[C@]3(c4ccc(F)cc4)OCOC3C2)ccc1COCCC(F)(F)F` (some centres unmarked) [Compound 32], the IC50 was no more than 2000 nM.
Take `COc1cc(C(=O)N2CC[C@@]3(c4ccccn4)COC3C2)ccc1OCC1CC(F)(F)C1` (some centres unmarked) [Compound 210]: the IC50 is 2000 to 5000 nM.
`Cc1cc(C(=O)N2CC[C@]3(c4nccs4)OCOC3C2)ccc1OCC(F)(F)F` (some centres unmarked) [Compound 70]: the IC50 is no more than 2000 nM.
The figure for `COc1nc(C(=O)N2CC[C@]3(c4cccc(F)c4)OCOC3C2)ccc1OCC1(C(F)(F)F)CC1` (some centres unmarked) [Compound 268] is no more than 2000 nM; for `Cc1cc(C(=O)N2CCC3(c4ccccc4)OCC3C2)ccc1OC(C)C` (centres unmarked) [Compound 13] it is greater than 5000 nM; for `COc1cc(OC(C)C)ccc1C(=O)N1CCC2(c3ccccc3)CC2C1` (centres unmarked) [Compound 98] it is no more than 2000 nM.
The figure for `COc1nc(C(=O)N2CC[C@]3(c4cccc(F)c4)OCOC3C2)ccc1O[C@@H]1CC2[C@H](C1)C2(F)F` (some centres unmarked) [Compound 230] is no more than 2000 nM; for `Cc1nc(C(=O)N2CCC3(c4ccccc4)CC3C2)ccc1OC(C)C` (centres unmarked) [Compound 134] it is no more than 2000 nM; for `COc1cc(C(=O)N2CC[C@]3(c4cccc(C#N)c4)OCOC3C2)ccc1OCC1CC(F)(F)C1` (some centres unmarked) [Compound 291] it is no more than 2000 nM.
Regarding `O=C(c1ccc(OCCOC(F)(F)F)c(F)c1)N1CC[C@@]2(c3nccs3)OCOC2C1` (some centres unmarked) [Compound 59], the IC50 is no more than 2000 nM.
As to `COc1nc(C(=O)N2CC[C@]3(c4cccc(F)c4)OCOC3C2)ccc1OCC1CC2(C1)CC(F)(F)C2` (some centres unmarked) [Compound 223], the IC50 is no more than 2000 nM.
`COc1cc(C(=O)N2CC[C@]3(c4cc(C(F)(F)F)ccn4)OCOC3C2)ccc1OCCC(F)(F)F` (some centres unmarked) [Compound 251]: the IC50 was no more than 2000 nM.
In the case of `COc1nc(C(=O)N2CCC3(c4ccccc4)CC3C2)ccc1OCC(C)(C)F` (centres unmarked) [Compound 125] it was no more than 2000 nM.
In the case of `CCOc1nc(C(=O)N2CC[C@@]3(c4nccs4)OCOC3C2)ccc1OCCOC(F)(F)F` (some centres unmarked) [Compound 137] it was no more than 2000 nM.
As for `Cc1cc(C(=O)N2CCC3(c4ccccc4)CC3C2)cnc1OC(C)C` (centres unmarked) [Compound 18], the IC50 lay within 2000 to 5000 nM.
In the case of `Cc1cc(C(=O)N2CCC3(c4ccccc4)CC3C2)ccc1OCC(C)(C)O` (centres unmarked) [Compound 171] it was no more than 2000 nM; in that of `CC(C)(C)OCCOc1ccc(C(=O)N2CC[C@]3(c4ccccn4)OCOC3C2)cc1Cl` (some centres unmarked) [Compound 69], no more than 2000 nM.
The figure for `COc1cc(C(=O)N2CC[C@]3(c4cccc(F)c4)OCOC3C2)ccc1OCCC1CC1(F)F` (some centres unmarked) [Compound 252] is no more than 2000 nM; for `COc1cc(C(=O)N2CC[C@]3(c4ccccc4)OCOC3C2)ccc1OCC(C)(C)F` (some centres unmarked) [Compound 71] it is no more than 2000 nM; for `CC(C)(F)COc1ccc(C(=O)N2CC[C@]3(c4ccccn4)OCO[C@@H]3C2)cc1C(F)(F)F` [Compound 127] it is no more than 2000 nM.
As to `O=C(c1ccc(OCCOC(F)(F)F)c(Cl)c1)N1CC[C@@]2(c3nccs3)OCOC2C1` (some centres unmarked) [Compound 138], the IC50 is no more than 2000 nM.
Take `COc1nc(C(=O)N2CC[C@]3(c4cccc(F)c4)OCOC3C2)ccc1OCC(F)(F)C1CC1` (some centres unmarked) [Compound 227]: the IC50 was no more than 2000 nM.
The figure for `COc1cc(C(=O)N2CC[C@]3(c4ccccn4)COC[C@@H]3C2)ccc1OCCOC(F)(F)F` [Compound 276] is greater than 5000 nM; for `O=C(c1ccc(OCCOC(F)(F)F)c(Cl)c1)N1CCC2(c3ccccn3)CC2C1` (centres unmarked) [Compound 238] it is no more than 2000 nM.
In the case of `COc1cc(C(=O)N2CCC3(c4ccccn4)CC3C2)ccc1OCCOC(F)(F)F` (centres unmarked) [Compound 285] it was no more than 2000 nM; in that of `COc1cc(C(=O)N2CC[C@]3(c4ncccc4OC)OCOC3C2)ccc1OCCOC(F)(F)F` (some centres unmarked) [Compound 41], no more than 2000 nM; in that of `COc1cc(C(=O)N2CC[C@@]3(c4nccs4)OCOC3C2)ccc1OCC(C)(C)F` (some centres unmarked) [Compound 6], greater than 5000 nM.
For the compound `Cc1cc(C(=O)N2CC[C@]3(c4ncccc4F)OCOC3C2)ccc1OCCOC(F)(F)F` (some centres unmarked) [Compound 129], the IC50 is no more than 2000 nM.
`COc1nc(C(=O)N2CC[C@@]3(c4cccc(F)c4)OCOC3C2)ccc1OCC1(C(F)(F)F)CC1` (some centres unmarked) [Compound 213]: the IC50 is no more than 2000 nM.
As to `COc1cc(C(=O)N2CCC3(c4ccccc4)CC3C2)ccc1OCCC(C)C` (centres unmarked) [Compound 151], the IC50 was no more than 2000 nM.
The figure for `COc1cc(C(=O)N2CC[C@]3(c4ncccn4)OCOC3C2)ccc1OCC(C)(C)F` (some centres unmarked) [Compound 7] is greater than 5000 nM; for `[2H]C1([2H])OC2CN(C(=O)c3ccc(OCC4CC(F)(F)C4)c(OC)c3)CC[C@]2(c2cccc(F)c2)O1` (some centres unmarked) [Compound 177] it is no more than 2000 nM; for `COc1cc(C(=O)N2CC[C@]3(c4ncccn4)OCOC3C2)ccc1OCCOC(F)(F)F` (some centres unmarked) [Compound 12] it is greater than 5000 nM.
As to `COc1cc(C(=O)N2CC[C@]3(c4ccccc4)OCOC3C2)ccc1OCCC(F)(F)F` (some centres unmarked) [Compound 102], the IC50 is no more than 2000 nM.
In the case of `O=C(c1ccc(OCCOC(F)(F)F)c(Cl)c1)N1CC[C@]2(c3cccc(F)c3)OCOC2C1` (some centres unmarked) [Compound 255] it was no more than 2000 nM; in that of `CC(C)Oc1ccc(C(=O)N2CCC3(c4ccccc4)CC3C2)c(F)c1` (centres unmarked) [Compound 19], 2000 to 5000 nM; in that of `COc1cc(C(=O)N2CCC3(c4ccccc4)CC3C2)ccc1COCC(F)(F)F` (centres unmarked) [Compound 83], no more than 2000 nM.
In the case of `O=C(c1ccc(OCCC(F)(F)F)c(C(F)(F)F)c1)N1CC[C@]2(c3ccccn3)OCOC2C1` (some centres unmarked) [Compound 128] it was no more than 2000 nM; in that of `COc1c(F)cccc1C(=O)N1CCC2(c3ccccc3)CC2C1` (centres unmarked) [Compound 11], greater than 5000 nM.
In the case of `COc1cc(C(=O)N2CC[C@]3(c4cscn4)OCOC3C2)ccc1OCCOC(F)(F)F` (some centres unmarked) [Compound 39] it was greater than 5000 nM; in that of `COc1cc(C(=O)N2CC[C@@]3(c4ccc(F)cc4)OCOC3C2)ccc1OCC(C)(C)F` (some centres unmarked) [Compound 47], no more than 2000 nM.
Regarding `O=C(c1ccc(OCCOC(F)(F)F)c(Cl)c1)N1CC[C@]2(c3cc(C(F)(F)F)ccn3)OCOC2C1` (some centres unmarked) [Compound 248], the IC50 was no more than 2000 nM.
Take `Cc1cc(C(=O)N2CC[C@]3(c4nccs4)OCOC3C2)ccc1OCC(C)(C)O` (some centres unmarked) [Compound 31]: the IC50 was no more than 2000 nM.
Consider `COc1nc(C(=O)N2CC[C@]3(c4cccc(F)c4)OCOC3C2)ccc1O[C@H]1CC2[C@H](C1)C2(F)F` (some centres unmarked) [Compound 229], for which the IC50 is no more than 2000 nM.
With `COc1cc(C(=O)N2CC[C@]3(c4cccc(F)c4)OCOC3C2)ccc1OCC1CCC1` (some centres unmarked) [Compound 241], the concentration for half-maximal inhibition (IC50) was in the range of 2000 to 5000 nM.
The figure for `COc1cc(C(=O)N2CC[C@]3(c4cccc(C(F)(F)F)n4)OCOC3C2)ccc1OCC1CC(F)(F)C1` (some centres unmarked) [Compound 275] is no more than 2000 nM.
In the case of `COc1ccc(C(=O)N2CCC3(c4ccccc4)CC3C2)nc1C` (centres unmarked) [Compound 14] it was 2000 to 5000 nM; in that of `Cc1cc(C(=O)N2CC[C@]3(c4ccccc4)C[C@@H]3C2)ccc1OCC(C)(C)O` [Compound 133], no more than 2000 nM.
Consider `COc1cc(C(=O)N2CC[C@]3(c4ccccc4)CC3C2)ccc1OCC(C)(C)O` (some centres unmarked) [Compound 104], for which the half-inhibitory concentration (IC50) is no more than 2000 nM.
